The term EC50 denotes the concentration at which the effect is half-maximal. A low value points to higher potency in that assay.

SMILES strings stand for the structures.

This is an account of results in patent US10195196B2, “1,4-disubstituted pyridazine analogs there of and methods for treating SMN-deficiency-related conditions” (NOVARTIS AG, priority 2012, dated 2019).

The test system of this experiment is SMN protein. In words: cellular SMN ELISA (SMN protein elevation). The following applies: myoblast cell line from SMNdelta7 mouse model, 24 hours treatment; for SMN activity Fold: fold activation over DMSO control. The experiment is classed as cell-based. In a few lines: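 SMNdelta7 mouse-derived myoblasts were treated with compound for 24 h, then lysed. SMN protein was quantified by sandwich ELISA (HRP/TMB, 450 nm) and reported as fold over DMSO and EC50, over 20 nM–10 μM or 100 pM–10 μM depending on condition.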
A general note: ELISA stands for enzyme-linked immunosorbent assay.

The mark [1] stands for this setting: ELISA condition 2: compound concentration 100 pM-10 uM.
The mark [2] stands for this setting: ELISA condition 1: compound concentration range 20 nM-10 uM.

Take `CN1C[C@@H]2CN(c3ccc(-c4ccc(-c5cn[nH]c5)cc4O)nn3)C[C@@H]2C1` [Example 43-3, 2-(6-((3aR,6aS)-5-methylhexahydropyrrolo[3,4-c]pyrrol-2(1H)-yl)pyridazin-3-yl)-5-(1H-pyrazol-4-yl)phenol]: under setting [1], the EC50 came to 19 nM and the “SMN activity Fold” value was determined as 2.39 Fold.
As for `CN(c1ccc(-c2ccc(-n3cc(C(N)=O)cn3)cc2O)nn1)C1CC(C)(C)NC(C)(C)C1` [Example 42-11, 1-(3-hydroxy-4-(6-(methyl(2,2,6,6-tetramethylpiperidin-4-yl)amino)pyridazin-3-yl)phenyl)-1H-pyrazole-4-carboxamide], under setting [1], the response was half-maximal at 239 nM (EC50) and the “SMN activity Fold” value is given as 3.37 Fold.
With `CCOc1cc(-c2ncc(C)o2)cc(O)c1-c1ccc(N(C)C2CC(C)(C)NC(C)(C)C2)nn1` [Example 27-2, 3-ethoxy-2-(6-(methyl(2,2,6,6-tetramethylpiperidin-4-yl)amino)pyridazin-3-yl)-5-(5-methyloxazol-2-yl)phenol], under setting [1], it took 165 nM to reach a half-maximal effect (EC50) and the “SMN activity Fold” value came to 2.83 Fold.
On to `CN(c1ccc(-c2c(O)cc(Cl)cc2F)nn1)C1CC(C)(C)NC(C)(C)C1` [Example 40-6, 5-chloro-3-fluoro-2-(6-(methyl(2,2,6,6-tetramethylpiperidin-4-yl)amino)pyridazin-3-yl)phenol], for which, under setting [1], the EC50 is 208 nM and the “SMN activity Fold” value came to 2.16 Fold.
For the compound `CC1(C)CC(Nc2ccc(-c3cnc4ccccc4c3)nn2)CC(C)(C)N1` [Example 1-5, 6-(quinolin-3-yl)-N-(2,2,6,6-tetramethyl-piperidin-4-yl)pyridazin-3-amine], under setting [2], it took 650 nM to reach a half-maximal effect (EC50) and the “SMN activity Fold” value is listed as 2.50 Fold.
As to `C=CCNC(=O)c1ccc(-c2ccc(N(C)C3CC(C)(C)NC(C)(C)C3)nn2)c(O)c1` [Example 8-1, N-allyl-3-hydroxy-4-(6-(methyl(2,2,6,6-tetramethylpiperidin-4-yl)amino)pyridazin-3-yl)benzamide], under setting [2], a half-maximal effect (EC50) was put at 280 nM and the “SMN activity Fold” value is reported as 2.72 Fold.
For `Cc1nc2cc(-c3ccc(N(C)C4CC(C)(C)NC(C)(C)C4)nn3)c(O)cc2[nH]1` [Example 28-1, 2-methyl-5-(6-(methyl(2,2,6,6-tetramethylpiperidin-4-yl)amino)pyridazin-3-yl)-1H-benzo[d]imidazol-6-ol], under setting [1], the EC50 was 475 nM and the “SMN activity Fold” value is 3.41 Fold.
The corresponding values for `CN(c1ccc(-c2cc(-n3cccn3)ccc2O)nn1)C1CC(C)(C)NC(C)(C)C1` [Example 16-4, 2-(6-(methyl(2,2,6,6-tetramethylpiperidin-4-yl)amino)pyridazin-3-yl)-4-(1H-pyrazol-1-yl)phenol] are 94 nM and 2.71 Fold.
For `CN(c1ccc(-c2ccc(-c3cncc(O)c3)cc2O)nn1)C1CC(C)(C)NC(C)(C)C1` [Example 41-13, 5-(3-hydroxy-4-(6-(methyl(2,2,6,6-tetramethylpiperidin-4-yl)amino)pyridazin-3-yl)phenyl)pyridin-3-ol], under setting [1], the EC50 worked out at 308 nM and the “SMN activity Fold” value amounted to 3.50 Fold.
The corresponding values for `Cn1ccc(-c2ccc(O)c(-c3ccc(OC4CC(C)(C)NC(C)(C)C4)nn3)c2)cc1=O` [Example 32-8, 4-(4-hydroxy-3-(6-((2,2,6,6-tetramethylpiperidin-4-yl)oxy)pyridazin-3-yl)phenyl)-1-methylpyridin-2(1H)-one] are 433 nM and 2.61 Fold.
For the compound `Oc1cc(-n2cccn2)ccc1-c1ccc(OC2CCNCC2F)nn1` (stereo not drawn) [Example 17-10, 2-(6-((3-fluoropiperidin-4-yl)oxy)pyridazin-3-yl)-5-(1H-pyrazol-1-yl)-phenol], under setting [1], the response was half-maximal at 945 nM (EC50) and the “SMN activity Fold” value is on record as 2.03 Fold.
Consider `OCCN1C[C@@H]2CN(c3ccc(-c4ccc(-c5cn[nH]c5)cc4O)nn3)C[C@@H]2C1` [Example 43-1, 2-(6-((3aR,6aS)-5-(2-hydroxyethyl)hexahydropyrrolo[3,4-c]pyrrol-2(1H)-yl)pyridazin-3-yl)-5-(1H-pyrazol-4-yl)phenol], for which, under setting [1], the concentration for a half-maximal effect (EC50) is 40 nM and the “SMN activity Fold” value is listed as 3.04 Fold.
As to `CN(c1ccc(-c2c(O)cc(-c3cnn(C)c3)cc2OC(F)(F)F)nn1)C1CC(C)(C)NC(C)(C)C1` [Example 25-4, 2-(6-(methyl(2,2,6,6-tetramethylpiperidin-4-yl)amino)pyridazin-3-yl)-5-(1-methyl-1H-pyrazol-4-yl)-3-(trifluoromethoxy)phenol], under setting [1], the EC50 is 199 nM and the “SMN activity Fold” value is on record as 2.30 Fold.
`CC1(C)CC(Nc2ccc(-c3cc4ccccc4cc3O)nn2)CC(C)(C)N1` [Example 3-3, 3-(6-(2,2,6,6-tetramethylpiperidin-4-ylamino)pyridazin-3-yl)naphthalen-2-ol]: under setting [2], the 50% effective concentration (EC50) is 64 nM and the “SMN activity Fold” value is 2.48 Fold.
For the compound `CN(c1ccc(-c2ccc3nccn3c2)nn1)C1CC(C)(C)NC(C)(C)C1` [Example 1-16, 6-(imidazo[1,2-a]pyridin-6-yl-pyridazin-3-yl)-methyl-(2,2,6,6-tetramethyl-piperidin-4-yl)-amine], under setting [1], it took 2980 nM to reach a half-maximal effect (EC50) and the “SMN activity Fold” value is 2.28 Fold.
With `Cc1cnc(-c2ccc(-c3ccc(N(C)C4CC(C)(C)NC(C)(C)C4)nn3)c(O)c2)o1` [Example 10-1, 5-(5-methyl-oxazol-2-yl)-2-{6-[methyl-(2,2,6,6-tetramethyl-piperidin-4-yl)-amino]-pyridazin-3-yl}-phenol], under setting [1], the EC50 is 31 nM and the “SMN activity Fold” value is 2.99 Fold.
Take `CN(c1ccc(-c2cc3c(cc2O)/C(=N/O)CC3)nn1)C1CC(C)(C)NC(C)(C)C1` [Example 35-3, 6-hydroxy-5-(6-(methyl(2,2,6,6-tetramethylpiperidin-4-yl)amino)pyridazin-3-yl)-2,3-dihydro-1H-inden-1-one oxime]: under setting [1], it took 11 nM to reach a half-maximal effect (EC50) and the “SMN activity Fold” value is 2.62 Fold.
With `CN(c1ccc(-c2ccc3ncccc3c2)nn1)C1CC(C)(C)NC(C)(C)C1` [Example 1-13, N-methyl-6-(quinolin-6-yl)-N-(2,2,6,6-tetramethylpiperidin-4-yl)pyridazin-3-amine], under setting [1], a half-maximal effect (EC50) was put at 661 nM and the “SMN activity Fold” value worked out at 2.22 Fold.
As for `CN(c1ccc(-c2ccc(-c3cnc(O)c(C(F)(F)F)c3)cc2O)nn1)C1CC(C)(C)NC(C)(C)C1` [Example 41-5, 5-(3-hydroxy-4-(6-(methyl(2,2,6,6-tetramethylpiperidin-4-yl)amino)pyridazin-3-yl)phenyl)-3-(trifluoromethyl)pyridin-2-ol], under setting [1], the EC50 is 175 nM and the “SMN activity Fold” value is reported as 2.88 Fold.
`CN(c1ccc(-c2cnc3ccccc3c2)nn1)C1CC(C)(C)NC(C)(C)C1` [Example 1-21, methyl-(6-quinolin-3-yl-pyridazin-3-yl)-(2,2,6,6-tetramethyl-piperidin-4-yl)-amine]: under setting [2], the EC50 amounted to 630 nM and the “SMN activity Fold” value is 2.49 Fold.
As to `CN(c1ccc(-c2ccc(-c3cccc4cn[nH]c34)cc2O)nn1)C1CC(C)(C)NC(C)(C)C1` [Example 33-1, 5-(1H-indazol-7-yl)-2-(6-(methyl(2,2,6,6-tetramethylpiperidin-4-yl)amino)pyridazin-3-yl)phenol], under setting [1], the midpoint of the response, the EC50, lay at 349 nM and the “SMN activity Fold” value is 2.29 Fold.
